Results: patent US20050048579A1, “Tertiary structures of ICAM-1/LFA-1 modulators” (priority 2003, published 2005)
Bridge positions count the residues as written; N and C are the ends. Peptide text beside a SMILES is read from it.

Legend:
[1] = biological target: ICAM-1/LFA-1 dependent cell aggregation (Homo sapiens, UniProt P05362); conditions: literature reports; cited from earlier work
[2] = biological target: T1, LFA-1 binding to ICAM-1 (JY cells) (Homo sapiens, UniProt P05362); test: LFA-1:ICAM-1 dependent JY cell aggregation assay (2 hours); assay type: cell-based
T1 construct: endogenous in cells; host or cells: JY cells
T1 sequence (P05362 28-532): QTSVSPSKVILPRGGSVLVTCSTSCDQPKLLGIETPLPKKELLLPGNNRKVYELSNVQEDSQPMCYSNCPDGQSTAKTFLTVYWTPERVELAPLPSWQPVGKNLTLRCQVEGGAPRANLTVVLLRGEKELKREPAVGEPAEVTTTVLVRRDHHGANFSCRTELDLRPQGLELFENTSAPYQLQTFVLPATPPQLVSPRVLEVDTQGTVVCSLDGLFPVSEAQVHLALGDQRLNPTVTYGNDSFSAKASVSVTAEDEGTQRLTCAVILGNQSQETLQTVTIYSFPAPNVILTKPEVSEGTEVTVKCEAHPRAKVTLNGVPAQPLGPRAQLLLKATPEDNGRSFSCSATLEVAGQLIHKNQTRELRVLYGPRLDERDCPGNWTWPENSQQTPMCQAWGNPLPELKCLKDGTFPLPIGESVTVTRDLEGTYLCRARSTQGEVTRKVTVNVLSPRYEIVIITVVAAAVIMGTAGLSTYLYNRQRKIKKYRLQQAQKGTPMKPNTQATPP
Procedure: (§1) Cysteine-constrained peptides, synthesized by Biopeptide (San Diego, Calif., USA), were isolated using high-performance liquid chromatography, and their correct mass was confirmed by mass spectrometry. The peptides were dissolved in 5% dimethylsulfoxide in phosphate-buffered saline (PBS) at concentrations of 10 mm and stored at −80° C. until use. The mAb directed against LFA-1 (TS1/18) was purified from a hybridoma line ([…], Manassas, Va.) as described previously (Oj, V. T. & Herzenberg, T. (1980) Immunoglobulin-producing hybrid celllines. In Selected Methods in Cellular Immunology (Mishell, B. B. & Shiigi, S. M.,eds), H. H. Freeman, New York; Larson, R. S., Brown, D. C. & Sklar, L. A.(1997) Retinoic acid induces aggregation of the acute promyelocytic leukemia cell lineNB-4 by utilization of LFA-1 and ICAM-2.Blood 90, 2747-2756; Rothlein, R. & Springer, T. A. (1986) The requirement for lymphocyte function associated antigen 1 in homotypic leukocyte adhesion stimulated by phorbol ester. J. Exp.Med. 163, 1132-1149).
(§2) JY cells were maintained in RPMI-1640 medium supplemented with 10% fetal bovine serum at 37° C. in an atmosphere containing 5% CO2 in air. The aggregation of JY cells, which is dependent on LFA-1 binding to ICAM-1, was determined as previously reported (Shannon, J. P., Silva, M. V., Brown, D. C. & Larson, R. S. (2001) Novel cyclic peptide inhibits intercellular adhesion molecule-1-mediated cell aggregation. J. Pept. Res. 58, 140-150; Larson, R. S., Brown, D. C. & Sklar, L. A.(1997) Retinoic acid induces aggregation of the acute promyelocytic leukemia cell lineNB-4 by utilization of LFA-1 and ICAM-2.Blood 90, 2747-2756; Rothlein, R. & Springer, T. A. (1986) The requirement for lymphocyte function associated antigen 1 in homotypic leukocyte adhesion stimulated by phorbol ester. J. Exp.Med. 163, 1132-1149). Briefly, JY cells were washed twice with serum-free media and resuspended at a concentration of 4×10^5 cells/mL. Cells were then preincubated with various concentrations of peptides or mAb for 15 minutes at room temperature. A 50 μL aliquot of cells was seeded in each well of a 96-well flat-bottomed microtiterplate followed by the addition of either peptide or mAb to a final volume of 100 μL. Cells were allowed to aggregate at 37° C. in humidified air containing 5% CO2. Within each well, the number of aggregates and the total number of free (single) cells were counted by inverted phase microscopy. Percent aggregation, P, was then determined as follows: P=100(1−Ff/Fi), where Ff (Fi) is the final (initial) number of free cells. Percent aggregation was then used to calculate percent inhibition, I, as follows: […], where Pi (Pc) is the percent aggregation with modulatory peptide (control). The constants for 50% inhibition (IC50) were derived from a linear fit to the percent inhibition at four concentrations (50 μm, 100 μm, 500 μm, and 1 mm) of inhibitory peptide. Each experiment was performed at least three times, with each condition performed in duplicate. The data are reported as the mean values and the SDs of each IC50.

[3] = system: ischemia-reperfusion injury; conditions: in vivo; cited from earlier work
[4] = biological target: T1, LFA-1 binding to ICAM-1 (JY cells); test: LFA-1:ICAM-1 dependent cell aggregation assay, slightly modified (360 minute incubations); assay type: cell-based
Procedure: as §2
The same general procedure was used as described in Example 1.
The functional activity of each IP02 derivative was measured in a slightly-modified version of the previously described cell aggregation assay (Shannon, J. P., Silva, M. V., Brown, D. C., & Larson, R. S. (2001). Novel cyclic peptide inhibits intercellular adhesion molecule-1-mediated cell aggregation. J. Pept. Res. 58, 140-150; Merchant, S. H., Gurule, D. M., Larson, R. S. (2003). Amelioration of ischemia-reperfusion injury with cyclic peptide blockade of ICAM-1. Am. J. Physiol. Heart Circ. 284,H1260-1268; Larson, R. S., Brown, D. C., and Sklar, L. A. (1997). Retinoic acid induces aggregation of the acute promyelocytic leukemia cell line NB-4 by utilization of LFA-1 and ICAM-2. Blood 90, 2747-2756; Rothlein, R. and Springer, T. A. (1986). The requirement for lymphocyte function-associated antigen 1 in homotypic leukocyte adhesion stimulated by phorbol ester. J. Exp. Med. 163, 1132-1149). Longer incubations (360 minutes) were used here instead of the earlier 120 minute incubations in order to increase the observed differences among peptide antagonists. Of all the amino acid substitutions, replacement of R6 with K, to produce IP02-K6, improved the IC50 the most. […] Alternatively, replacement of L2 or L3 with V (IP02-V2 and IP02-V3) or A8 with L (IP02-L8) abrogated activity, with IC50s exceeding 1,000 μM.

[5] = Solubility of the peptide; assay type: physicochemical; conditions: NS, not soluble; precluded testing; listed as R4 to A mutation
Procedure: as §1

Chain of ICAM-1/LFA-1 dependent cell aggregation (P05362 28-532): as above

CC[C@H](C)[C@@H]1NC(=O)[C@H](CO)NC(=O)[C@H](CCCNC(=N)N)NC(=O)[C@H](CCSC)NC(=O)[C@H](CCCNC(=N)N)NC(=O)[C@H](CC(C)C)NC(=O)[C@H](CC(C)C)NC(=O)[C@@H](N)CSSC[C@@H](C(=O)O)NC1=O [IP01, CLLRMRSIC] (H-CLLRMRSIC-OH; disulfide 1-9; N-terminus and C-terminus assumed)
inhibition of ICAM-1/LFA-1 dependent cell aggregation (in words) [1]: potent in vitro inhibitor

CSCC[C@@H]1NC(=O)[C@H](CCCNC(=N)N)NC(=O)[C@H](CC(C)C)NC(=O)[C@H](CC(C)C)NC(=O)[C@@H](N)CSSC[C@@H](C(=O)O)NC(=O)[C@H](C)NC(=O)[C@H](CO)NC(=O)[C@H](CCCNC(=N)N)NC1=O [IP01-A8, CLLRMRSAC] (H-CLLRMRSAC-OH; disulfide 1-9; N-terminus and C-terminus assumed)
bioactivity after alanine substitution (in words) ([2]; listed as I8 to alanine substitution): retained significant bioactivity | inhibition of ICAM-1/LFA-1 dependent cell aggregation (in words) [1]: enhanced inhibition

CSCC[C@@H]1NC(=O)[C@H](CCCNC(=N)N)NC(=O)[C@H](CC(C)C)NC(=O)[C@H](CC(C)C)NC(=O)[C@@H](N)CSSC[C@@H](C(=O)O)NC(=O)[C@H](C)NC(=O)[C@H](CO)NC(=O)[C@H](CCCCN)NC1=O [IP02-K6, CLLRMKSAC] (H-CLLRMKSAC-OH; disulfide 1-9; N-terminus and C-terminus assumed)
inhibition of ischemia-reperfusion injury (in words) [3]: potent in vivo inhibitor | inhibition of ICAM-1/LFA-1 dependent cell aggregation (in words) [1]: more potent inhibitor of ICAM-1 than IP01 | IC50 fold smaller than lead peptide IP01 [4]: ~6 fold

CC[C@H](C)[C@@H]1NC(=O)[C@H](CO)NC(=O)[C@H](CCCNC(=N)N)NC(=O)[C@H](CCSC)NC(=O)[C@H](CCCNC(=N)N)NC(=O)[C@H](C)NC(=O)[C@H](CC(C)C)NC(=O)[C@@H](N)CSSC[C@@H](C(=O)O)NC1=O [IP01-A3, CLARMRSIC] (H-CLARMRSIC-OH; disulfide 1-9; N-terminus and C-terminus assumed)
IC50 [2]: > 1000 µM

CC[C@H](C)[C@@H]1NC(=O)[C@H](CO)NC(=O)[C@H](CCCNC(=N)N)NC(=O)[C@H](CCSC)NC(=O)[C@H](C)NC(=O)[C@H](CC(C)C)NC(=O)[C@H](CC(C)C)NC(=O)[C@@H](N)CSSC[C@@H](C(=O)O)NC1=O [IP01-A4, CLLAMRSIC] (H-CLLAMRSIC-OH; disulfide 1-9; N-terminus and C-terminus assumed)
solubility of the peptide [5]: insoluble

CC[C@H](C)[C@@H]1NC(=O)[C@H](CO)NC(=O)[C@H](CCCNC(=N)N)NC(=O)[C@H](CCSC)NC(=O)[C@H](CCCNC(=N)N)NC(=O)[C@H](CC(C)C)NC(=O)[C@H](C)NC(=O)[C@@H](N)CSSC[C@@H](C(=O)O)NC1=O [IP01-A2, CALRMRSIC] (H-CALRMRSIC-OH; disulfide 1-9; N-terminus and C-terminus assumed)
IC50 [2]: > 1000 µM
